# Legend:
# [1] = system: HCV replicon I389luc-ubi-neo/NS3-3′/ET in ET (Huh-lucubineo-ET) cells; assay: Replicon assay (Biological Example 2), luciferase readout; assay type: cell-based; conditions: Hepatitis C virus
# Method in brief: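 EC50 values come from Hill fits of % inhibition of replicon-driven firefly luciferase, relative to no-compound wells. Compounds were serially diluted (10 points, 3-fold, 0.1 nM–50 μM final, 0.5% DMSO) onto ET replicon cells and read after 48 h.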
# HCV polymerase = target: T1, HCV polymerase (Hepatitis C virus genotype 1b, UniProt Q9WMX2); assay: Polymerase assay of Biological Example 1 (IC50 values of Table 3); assay type: biochemical; conditions: IC50 values of Table 3, polymerase assay of Biological Example 1; read-out: NS5B-enzyme3
# T1 construct: (His)6 (C); made in house; host or cells: XL-1 cells (E. coli, by own knowledge)
# [2] = ET cells, luciferase activity 48 hours after compound
SMILES,IC50 ([1]; between 100 nM and 5.0 uM) [nM],IC50 (HCV polymerase) [nM],"IC50 [1, 2] [nM]"
"O=C(O)c1sc(-c2ccccc2)cc1N1C(=O)CN(S(=O)(=O)c2ccc(N(CCO)CCO)nc2)CC1C1CCCCC1 (stereo not drawn) [Compound 83, 3-(4-{6-[Bis-(2-hydroxy-ethyl)-amino]-pyridine-3-sulfonyl}-2-cyclohexyl-6-oxo-piperazin-1-yl)-5-phenyl-thiophene-2-carboxylic acid]",100 to 5000,3,
"CCc1ccc(S(=O)(=O)N2CC(=O)N(c3cc(C#CC(C)(C)C)sc3C(=O)O)[C@H](C3CCCCC3)C2)cc1 [Compound 256, 3-[(R)-2-Cyclohexyl-4-(4-ethyl-benzenesulfonyl)-6-oxo-piperazin-1-yl]-5-(3,3-dimethyl-but-1-ynyl)-thiophene-2-carboxylic acid]",,1,≤ 100
"C[C@H]1CN(c2ccc(S(=O)(=O)N3CC(=O)N(c4cc(-c5ccccc5)sc4C(=O)O)[C@H](C4CCCCC4)C3)cn2)CCN1C(=O)OC(C)(C)C [Compound 162, (S)-4-{5-[(R)-4-(2-Carboxy-5-phenyl-thiophen-3-yl)-3-cyclohexyl-5-oxo-piperazine-1-sulfonyl]-pyridin-2-yl}-2-methyl-piperazine-1-carboxylic acid tert-butyl ester]",,2,≤ 100
"Cc1ccc(-c2cc(N3C(=O)CCCC3C3CCCCC3)c(C(=O)O)s2)cc1 (stereo not drawn) [Compound 71, 3-(2-Cyclohexyl-6-oxo-piperidin-1-yl)-5-p-tolyl-thiophene-2-carboxylic acid]",100 to 5000,52,
"CN1CCN(C(=O)c2ccc(-c3ccc(S(=O)(=O)N4CC(=O)N(c5cc(-c6ccccc6)sc5C(=O)O)[C@H](C5CCCCC5)C4)cn3)cc2)CC1 [Compound 202, 3-((R)-2-Cyclohexyl-4-{6-[4-(4-methyl-piperazine-1-carbonyl)-phenyl]-pyridine-3-sulfonyl)-6-oxo-piperazin-1-yl)-5-phenyl-thiophene-2-carboxylic acid]",,1,≤ 100
"CC(C)N1CCN(c2ccc(S(=O)(=O)N3CC(=O)N(c4cc(-c5ccccc5)sc4C(=O)O)[C@H](C4CCCCC4)C3)cn2)CC1 [Compound 160, 3-{(R)-2-Cyclohexyl-4-[6-(4-isopropyl-piperazin-1-yl)-pyridine-3-sulfonyl]-6-oxo-piperazin-1-yl}-5-phenyl-thiophene-2-carboxylic acid]",,1,≤ 100
"O=C(O)c1sc(-c2ccccc2)cc1N1C(=O)CN(S(=O)(=O)c2ccc(Oc3ccccc3)cc2)CC1C1CCCCC1 (stereo not drawn) [Compound 51, 3-[2-Cyclohexyl-6-oxo-4-(4-phenoxy-benzenesulfonyl)-piperazin-1-yl]-5-phenyl-thiophene-2-carboxylic acid]",100 to 5000,11,
"Cc1ccc(S(=O)(=O)N2CC(=O)N(c3cc(-c4ccccc4)sc3C(=O)O)[C@H](C3CCCCC3)C2)cc1 [Compound 18, 3-[(R)-2-Cyclohexyl-6-oxo-4-(toluene-4-sulfonyl)-piperazin-1-yl]-5-phenyl-thiophene-2-carboxylic acid]",100 to 5000,2,
"O=C(O)c1sc(-c2ccccc2)cc1N1C(=O)CN(S(=O)(=O)c2ccc(N3CCC(F)(F)CC3)nc2)CC1C1CCCCC1 (stereo not drawn) [Compound 95, 3-[2-Cyclohexyl-4-(4,4-difluoro-3,4,5,6-tetrahydro-2H-[1,2′]bipyridinyl-5′-sulfonyl)-6-oxo-piperazin-1-yl]-5-phenyl-thiophene-2-carboxylic acid]",,5,≤ 100
"CCn1cc(S(=O)(=O)N2CC(=O)N(c3cc(C#CC(C)(C)C)sc3C(=O)O)[C@H](C3CCCCC3)C2)cn1 [Compound 275, 3-[(R)-2-Cyclohexyl-4-(1-ethyl-1H-pyrazole-4-sulfonyl)-6-oxo-piperazin-1-yl]-5-(3,3-dimethyl-but-1-ynyl)-thiophene-2-carboxylic acid]",,2,≤ 100
"O=C(O)c1sc(-c2ccc(Cl)cc2)cc1N1C(=O)CN(S(=O)(=O)c2ccc(N3CCCC3)cc2)C[C@H]1C1CCCCC1 [Compound 231, 5-(4-Chloro-phenyl)-3-[(R)-2-cyclohexyl-6-oxo-4-(4-pyrrolidin-1-yl-benzenesulfonyl)-piperazin-1-yl]-thiophene-2-carboxylic acid]",,1,≤ 100
"O=C(O)c1sc(-c2ccccc2)cc1N1C(=O)CN(S(=O)(=O)c2ccc(N3CCCC3)nc2)C[C@H]1C1CCCCC1 [Compound 135, 3-[(R)-2-Cyclohexyl-6-oxo-4-(6-pyrrolidin-1-yl-pyridine-3-sulfonyl)-piperazin-1-yl]-5-phenyl-thiophene-2-carboxylic acid]",,2.33,≤ 100
"CC(C)(C)C#Cc1cc(N2C(=O)C(CO)OC[C@H]2C2CCCCC2)c(C(=O)O)s1 (stereo partly drawn) [Compound 329, 3-((R)-5-Cyclohexyl-2-hydroxymethyl-3-oxo-morpholin-4-yl)-5-(3,3-dimethyl-but-1-ynyl)-thiophene-2-carboxylic acid]",,5,≤ 100
"O=C(O)c1sc(-c2ccccc2)cc1N1C(=O)COCC1C1CCCCC1 (stereo not drawn) [Compound 13, 3-(3-Cyclohexyl-5-oxo-morphoIin-4-yl)-5-phenyl-thiophene-2-carboxylic acid]",100 to 5000,79,
"O=C(O)c1sc(-c2cccc(F)c2)cc1N1C(=O)CCCC1C1CCCCC1 (stereo not drawn) [Compound 48, 3-(2-Cyclohexyl-6-oxo-piperidin-1-yl)-5-(3-fluoro-phenyl)-thiophene-2-carboxylic acid]",100 to 5000,187,
"O=C(O)c1sc(-c2ccccc2)cc1N1C(=O)CN(S(=O)(=O)c2ccc(N3CCN4CCCC4C3)nc2)C[C@H]1C1CCCCC1 (stereo partly drawn) [Compound 157, 3-{(R)-2-Cyclohexyl-4-[6-(hexahydro-pyrrolo[1,2-a]pyrazin-2-yl)-pyridine-3-sulfonyl]-6-oxo-piperazin-1-yl}-5-phenyl-thiophene-2-carboxylic acid]",,1,≤ 100
O=C(O)c1sc(-c2ccccc2)cc1N1C(=O)CN(S(=O)(=O)c2ccc(OC(F)(F)F)cc2)CC1C1CCCCC1 (stereo not drawn) [Compound 53],100 to 5000,24,
"Cc1ccc(-c2cc(N3C(=O)C(O)CCC3C3CCCCC3)c(C(=O)O)s2)cc1 (stereo not drawn) [Compound 317, 3-(6-Cyclohexyl-3-hydroxy-2-oxo-piperidin-1-yl)-5-p-tolyl-thiophene-2-carboxylic acid]",100 to 5000,24.1,
"CNC(=O)c1ccc(S(=O)(=O)N2CC(=O)N(c3cc(-c4ccccc4)sc3C(=O)O)C(C3CCCCC3)C2)cc1 (stereo not drawn) [Compound 98, 3-[2-Cyclohexyl-4-(4-methylcarbamoyl-benzenesulfonyl)-6-oxo-piperazin-1-yl]-5-phenyl-thiophene-2-carboxylic acid]",100 to 5000,3,
"O=C(O)CCS(=O)(=O)N1CC(=O)N(c2cc(-c3ccccc3)sc2C(=O)O)C(C2CCCCC2)C1 (stereo not drawn) [Compound 41, 3-[4-(2-Carboxy-ethanesulfonyl)-2-cyclohexyl-6-oxo-piperazin-1-yl]-5-phenyl-thiophene-2-carboxylic acid]",,218,≥ 5000
"CC(C)(C)C#Cc1cc(N2C(=O)[C@H](CCO)OC[C@H]2C2CCCCC2)c(C(=O)O)s1 [Compound 332, 3-[(2S,5R)-5-Cyclohexyl-2-(2-hydroxy-ethyl)-3-oxo-morpholin-4-yl]-5-(3,3-dimethyl-but-1-ynyl)-thiophene-2-carboxylic acid]",,12,≤ 100
"CCCCCS(=O)(=O)N1CC(=O)N(c2cc(-c3ccccc3)sc2C(=O)O)C(C2CCCCC2)C1 (stereo not drawn) [Compound 31, 3-[2-Cyclohexyl-6-oxo-4-(pentane-1-sulfonyl)-piperazin-1-yl]-5-phenyl-thiophene-2-carboxylic acid]",100 to 5000,47,
"C[C@@H]1CCCN1c1ccc(S(=O)(=O)N2CC(=O)N(c3cc(-c4ccccc4)sc3C(=O)O)[C@@H](C3CCCCC3)C2)cn1 [Compound 131, 3-{(S)-2-Cyclohexyl-4-[6-((R)-2-methyl-pyrrolidin-1-yl)-pyridine-3-sulfonyl]-6-oxo-piperazin-1-yl}-5-phenyl-thiophene-2-carboxylic acid]",100 to 5000,261,
"O=C(O)c1sc(-c2ccccc2)cc1N1C(=O)CN(S(=O)(=O)c2ccc(N3CCC(O)CC3)nc2)CC1C1CCCCC1 (stereo not drawn) [Compound 93, 3-[2-Cyclohexyl-4-(4-hydroxy-3,4,5,6-tetrahydro-2H-[1,2′]bipyridinyl-5′-sulfonyl)-6-oxo-piperazin-1-yl]-5-phenyl-thiophene-2-carboxylic acid]",,4,≤ 100
"O=C(O)c1sc(-c2ccccc2)cc1N1C(=O)CN(S(=O)(=O)C2CCCCC2)CC1C1CCCCC1 (stereo not drawn) [Compound 46, 3-(4-Cyclohexanesulfonyl-2-cyclohexyl-6-oxo-piperazin-1-yl)-5-phenyl-thiophene-2-carboxylic acid]",100 to 5000,63,
"Cc1ccc(-c2cc(N3C(=O)CN(S(=O)(=O)c4ccc(N5CCCC5)nc4)C[C@H]3C3CCCCC3)c(C(=O)O)s2)cc1 [Compound 272, 3-[(R)-2-Cyclohexyl-6-oxo-4-(6-pyrrolidin-1-yl-pyridine-3-sulfonyl)-piperazin-1-yl]-5-p-tolyl-thiophene-2-carboxylic acid]",,1,≤ 100
"O=C(O)c1sc(-c2ccccc2)cc1N1C(=O)CN(S(=O)(=O)c2ccc(N3C4CCC3CC4)nc2)CC1C1CCCCC1 (stereo not drawn) [Compound 125, 3-{4-[6-(7-Aza-bicyclo[2.2.1]hept-7-yl)-pyridine-3-sulfonyl]-2-cyclohexyl-6-oxo-piperazin-1-yl}-5-phenyl-thiophene-2-carboxylic acid]",,18,≤ 100

# Source: patent US9498483B2, “2,3,5-trisubstituted thiophene compounds and uses thereof” (priority 2010, dated 2016)
